≈ marks a conversion by molar mass, not a printed value.
Columns and labels:
Staphylococcus aureus = assay: Anti-MDR bacterial activity against Staphylococcus aureus CCARM 3090 assessed as inhibition of bacterial growth incubated for 18 hrs by microplate reader analysis; type: functional
Enterococcus faecalis = assay: Anti-MDR bacterial activity against Enterococcus faecalis CCARM 5172 assessed as inhibition of bacterial growth incubated for 18 hrs by microplate reader analysis; type: functional
Enterococcus faecium = assay: Anti-MDR bacterial activity against Enterococcus faecium CCARM 5203 assessed as inhibition of bacterial growth incubated for 18 hrs by microplate reader analysis; type: functional
Micrococcus luteus = assay: Anti-MDR bacterial activity against Micrococcus luteus ML01 assessed as inhibition of bacterial growth incubated for 18 hrs by microplate reader analysis; type: functional
Pseudomonas aeruginosa = assay: Anti-MDR bacterial activity against Pseudomonas aeruginosa 15690 assessed as inhibition of bacterial growth incubated for 18 hrs by microplate reader analysis; type: functional
Escherichia coli = assay: Anti-MDR bacterial activity against Escherichia coli CCARM 1009 assessed as inhibition of bacterial growth incubated for 18 hrs by microplate reader analysis; type: functional
Salmonella typhimurium = assay: Anti-MDR bacterial activity against Salmonella typhimurium CCARM 8250 assessed as inhibition of bacterial growth incubated for 18 hrs by microplate reader analysis; type: functional, Salmonella enterica subsp. enterica serovar Typhimurium; details: Salmonella enterica
[1] = Staphylococcus aureus, CCARM 3090, 18 h, read-out: MIC
[2] = Enterococcus faecalis, CCARM 5172, 18 h, read-out: MIC
[3] = Enterococcus faecium, CCARM 5203, 18 h, read-out: MIC
[4] = Micrococcus luteus, ML01, 18 h, read-out: MIC
[5] = Pseudomonas aeruginosa, 15690, 18 h, read-out: MIC

`C[C@@]1(C(=O)O)[C@@H](O)CC[C@]2(C)c3cc4c(cc3CC[C@@H]12)[nH]c1ccc(S(=O)(=O)c2c3c(cc5c2[nH]c2ccccc25)[C@@]2(C)CC[C@H](O)[C@@](C)(C(=O)O)[C@@H]2CC3)cc14` showed an MIC (Staphylococcus aureus; [1]) of 12.5 µg/mL (≈ 15.8 µM), an MIC (Enterococcus faecalis; [2]) of over 12.5 µg/mL and an MIC (Enterococcus faecium; [3]) of 6.25 µg/mL (≈ 7.92 µM). It also gave an MIC (Micrococcus luteus; [4]) of over 12.5 µg/mL, an MIC (Pseudomonas aeruginosa; [5]) of over 12.5 µg/mL and an MIC (Escherichia coli) of over 12.5 µg/mL. For the same molecule, the MIC (Salmonella typhimurium) was over 12.5 µg/mL.
Molecule `C[C@@]1(C(=O)O)[C@@H](O)CC[C@]2(C)c3cc4c(cc3CC[C@@H]12)[nH]c1ccc(-n2c3ccccc3c3cc5c(cc32)CC[C@H]2[C@](C)(C(=O)O)[C@@H](O)CC[C@]52C)cc14` has an MIC (Staphylococcus aureus; [1]) of 0.78 µg/mL (≈ 1.08 µM), an MIC (Enterococcus faecalis; [2]) of 3.12 µg/mL (≈ 4.3 µM) and an MIC (Enterococcus faecium; [3]) of 1.56 µg/mL (≈ 2.15 µM). For the same molecule, the MIC (Micrococcus luteus; [4]) was 3.12 µg/mL (≈ 4.3 µM), the MIC (Pseudomonas aeruginosa; [5]) was 0.78 µg/mL (≈ 1.08 µM) and the MIC (Escherichia coli) was over 12.5 µg/mL. It also gave an MIC (Salmonella typhimurium) of over 12.5 µg/mL.
In the case of `C[C@@]1(C(=O)O)[C@@H](O)CC[C@]2(C)c3cc4c(cc3CC[C@@H]12)[nH]c1c(-n2c3ccccc3c3cc5c(cc32)CC[C@H]2[C@](C)(C(=O)O)[C@@H](O)CC[C@]52C)cccc14` (stereo in doubt; 1), the MIC (Staphylococcus aureus; 18 h) is reported as 3.12 µg/mL (≈ 4.3 µM), the MIC (Enterococcus faecalis; 18 h) is reported as 6.25 µg/mL (≈ 8.62 µM) and the MIC (Enterococcus faecium; 18 h) is reported as 6.25 µg/mL (≈ 8.62 µM). For the same molecule, the MIC (Micrococcus luteus; 18 h) was 6.25 µg/mL (≈ 8.62 µM), the MIC (Pseudomonas aeruginosa; [5]) was 1.56 µg/mL (≈ 2.15 µM) and the MIC (Escherichia coli) was over 12.5 µg/mL. The MIC (Salmonella typhimurium) was over 12.5 µg/mL.
Work on `C[C@@]1(C(=O)O)[C@@H](O)CC[C@]2(C)c3cc4c(cc3CC[C@@H]12)[nH]c1c(-n2c3ccccc3c3cc5c(cc32)CC[C@H]2[C@](C)(C(=O)O)[C@@H](O)CC[C@]52C)cccc14` (stereo in doubt; 2) yielded an MIC (Staphylococcus aureus; 18 h) of 0.78 µg/mL (≈ 1.08 µM), an MIC (Enterococcus faecalis; 18 h) of 3.12 µg/mL (≈ 4.3 µM) and an MIC (Enterococcus faecium; 18 h) of 3.12 µg/mL (≈ 4.3 µM). For the same molecule, the MIC (Micrococcus luteus; 18 h) was 3.12 µg/mL (≈ 4.3 µM) and the MIC (Pseudomonas aeruginosa) was 1.56 µg/mL (≈ 2.15 µM).
For `C[C@@]1(C(=O)O)[C@@H](O)CC[C@]2(C)c3cc4c5ccccc5n(-c5c6c(cc7c5[nH]c5ccccc57)[C@@]5(C)CC[C@H](O)[C@@](C)(C(=O)O)[C@@H]5CC6)c4cc3CC[C@@H]12` (stereo in doubt; 3), the MIC (Staphylococcus aureus; [1]) was 6.25 µg/mL (≈ 8.62 µM), the MIC (Enterococcus faecalis; [2]) was over 12.5 µg/mL and the MIC (Enterococcus faecium; [3]) was 12.5 µg/mL (≈ 17.2 µM). For the same molecule, the MIC (Micrococcus luteus; [4]) was over 12.5 µg/mL, the MIC (Pseudomonas aeruginosa; [5]) was 6.25 µg/mL (≈ 8.62 µM) and the MIC (Escherichia coli) was over 12.5 µg/mL. For the same molecule, the MIC (Salmonella typhimurium) was over 12.5 µg/mL.
`C[C@@]1(C(=O)O)[C@@H](O)CC[C@]2(C)c3cc4c5ccccc5n(-c5c6c(cc7c5[nH]c5ccccc57)[C@@]5(C)CC[C@H](O)[C@@](C)(C(=O)O)[C@@H]5CC6)c4cc3CC[C@@H]12` (stereo in doubt; 4) showed an MIC (Staphylococcus aureus; 18 h) of over 12.5 µg/mL, an MIC (Enterococcus faecium; 18 h) of over 12.5 µg/mL and an MIC (Pseudomonas aeruginosa; 18 h) of over 12.5 µg/mL.
Molecule `C[C@@]1(C(=O)O)[C@@H](O)CC[C@]2(C)c3cc4c5ccccc5n(-n5c6ccccc6c6cc7c(cc65)CC[C@H]5[C@](C)(C(=O)O)[C@@H](O)CC[C@]75C)c4cc3CC[C@@H]12` (stereo in doubt; 5) has an MIC (Staphylococcus aureus; [1]) of 3.12 µg/mL (≈ 4.3 µM), an MIC (Enterococcus faecalis; 18 h) of 6.25 µg/mL (≈ 8.62 µM) and an MIC (Enterococcus faecium; [3]) of 3.12 µg/mL (≈ 4.3 µM). The MIC (Micrococcus luteus; [4]) was 6.25 µg/mL (≈ 8.62 µM), the MIC (Pseudomonas aeruginosa; 18 h) was 3.12 µg/mL (≈ 4.3 µM) and the MIC (Escherichia coli) was over 12.5 µg/mL. It also gave an MIC (Salmonella typhimurium) of over 12.5 µg/mL.
In the case of `C[C@@]1(C(=O)O)[C@@H](O)CC[C@]2(C)c3cc4c5ccccc5n(-n5c6ccccc6c6cc7c(cc65)CC[C@H]5[C@](C)(C(=O)O)[C@@H](O)CC[C@]75C)c4cc3CC[C@@H]12` (stereo in doubt; 6), the MIC (Staphylococcus aureus; 18 h) is reported as 1.56 µg/mL (≈ 2.15 µM), the MIC (Enterococcus faecalis; 18 h) is reported as 1.56 µg/mL (≈ 2.15 µM) and the MIC (Enterococcus faecium; 18 h) is reported as 1.56 µg/mL (≈ 2.15 µM). It also gave an MIC (Micrococcus luteus) of 6.25 µg/mL (≈ 8.62 µM) and an MIC (Pseudomonas aeruginosa; 18 h) of 0.78 µg/mL (≈ 1.08 µM).
`CN(C)[C@@H]1C(O)=C(C(N)=O)C(=O)[C@@]2(O)C(O)=C3C(=O)c4c(O)cccc4[C@@](C)(O)[C@H]3C[C@@H]12` [TETRACYCLINE] was tested, and the MIC (Staphylococcus aureus; Staphylococcus aureus, CCARM 3090, read-out: MIC) was 6.25 µg/mL (≈ 14.1 µM), the MIC (Enterococcus faecalis; [2]) was over 25 µg/mL and the MIC (Enterococcus faecium; [3]) was 1.56 µg/mL (≈ 3.51 µM). The MIC (Micrococcus luteus; [4]) was 6.25 µg/mL (≈ 14.1 µM), the MIC (Pseudomonas aeruginosa; [5]) was 12.5 µg/mL (≈ 28.1 µM) and the MIC (Escherichia coli) was 1.56 µg/mL (≈ 3.51 µM). The MIC (Salmonella typhimurium) was over 25 µg/mL.

— ChEMBL document CHEMBL4840329, “Antibiotic Dixiamycins from a Cold-Seep-Derived Streptomyces olivaceus” (2021)
